One assay has as its system MM.1S. Put plainly: CCK-8 proliferation, MM.1S. The note with it: Homo sapiens, MM1.S; Table B10, compounds designed based on the IRAK4 inhibitors; MM.1S cells; read-out: Inhibitory activity (IC50, nM) on tumor cell proliferation, MM.1S. Type of assay: cell-based. The essentials: (§1)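 Cells seeded, then after 24 h treated with 10 concentrations (top 10 µM, 5-fold serial dilution) for a line-specific time at 37°C, 5% CO2. Viability read by CCK-8; IC50 fitted from growth-inhibition curves.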

Another assay deals with LNcap. Put plainly: CCK-8 proliferation, LNcap. Particulars: Homo sapiens; Table B10, compounds designed based on the IRAK4 inhibitors; Lncap cells; read-out: Inhibitory activity (IC50, nM) on tumor cell proliferation, Lncap. Type of assay: cell-based. As to the method:
(§2) The tumor cells used herein were cultured in a cell culture medium listed in table A1 at 37°C in an incubator with 5% CO2. Prior to experimentation, all cell lines used were correctly identified by STR profiling, and tested negative for mycoplasma contamination using a mycoplasma detection kit through routine screenings. Table A1. Tumor cells and cell culture medium used in the present disclosure
(§3) IC50 values of the compounds of the present disclosure (including the compounds in Table 1, and compounds of examples) were measured using the Meilun Cell Counting Kit-8 kit from Dalian Meilun Biotech Co., Ltd. Assay details are as follows: tumor cells were seeded in a 96-well plate at a density listed in Table A2. After 24h, 100 µL of the inoculated cells were treated with 0.5µL of the compounds of the present disclosure (including the compounds in Tables 1 and 2, and compounds of examples) at 10 different successively decreasing concentrations (starting at the highest concentration of 10µM; 5-fold serial dilutions). After the cells were treated with the compounds of the present disclosure for a period of time, the cell viability detection reagent was added to the culture medium for cell viability assessment according to the instructions provided with the CCK-8 kit. […] The growth inhibition of the compounds of the present disclosure on cells was plotted by Prism Graphpad software, and the IC50 values of the compounds of the present disclosure were calculated therefrom. […] Seeding protocol and treatment time for tumor cells

In a further assay the test system is Jurkat. In words: CCK-8 proliferation, Jurkat. In kind it is cell-based, Human. The note with it: Homo sapiens; Table B10, compounds designed based on the IRAK4 inhibitors; Jurkat cells; read-out: Inhibitory activity (IC50, nM) on tumor cell proliferation, Jurkat. The gist of the method: as §1
Another assay has as its system MGC-803. In words: CCK-8 proliferation, MGC-803 (heads: MGC80-3, MGC803). Type of assay: cell-based, Human. The note with it: Homo sapiens, MGC-803; for IC50: Table B10, compounds designed based on the IRAK4 inhibitors, MGC803 cells, read-out: Inhibitory activity (IC50, nM) on tumor cell proliferation, MGC803; for pIC50: CCK-8, 72 hours, read-out: Inhibitory activity (IC50) on tumor cell proliferation, MGC80-3. The gist of the method: as §1

The next assay deals with H1299. Put plainly: CCK-8 proliferation, H1299. Set-up: species or system Human. Particulars: Homo sapiens, NCI-H1299; Table B10, compounds designed based on the IRAK4 inhibitors; H1299 cells; read-out: Inhibitory activity (IC50, nM) on tumor cell proliferation, H1299. As for the experimental part: as §2, §3
The next assay deals with SR. In words: CCK-8 proliferation, SR. Type of assay: cell-based, Human. The note with it: Homo sapiens; Table B10, compounds designed based on the IRAK4 inhibitors; SR cells; read-out: Inhibitory activity (IC50, nM) on tumor cell proliferation, SR. The gist of the method:
as §1

Another assay concerns BXPC-3. In words: CCK-8 proliferation, BXPC-3. Type of assay: cell-based. The note with it: Homo sapiens, 96 hours, read-out: Inhibitory activity (IC50) on tumor cell proliferation, BXPC-3. As to the method:
as §2, §3

A further assay relates to SW620. Put plainly: CCK-8 proliferation, SW620. Particulars: Homo sapiens, SW-620; CCK-8; 96 hours; read-out: Inhibitory activity (IC50) on tumor cell proliferation, SW620. In kind it is cell-based. The essentials:
as §1

The next assay relates to CCRF-CEM. In words: CCK-8 proliferation, CCRF-CEM. Type of assay: cell-based, Human. Particulars: Homo sapiens. The gist of the method:
as §1

The target in another assay is T1, IRAK4 (Homo sapiens, UniProt Q9NWZ3).
T1 construct: evaluate the effects of the compounds of the present disclosure on the expression of target proteins in cells; endogenous in cells; host or cells: hPBMC
T1 sequence (Q9NWZ3 1-460): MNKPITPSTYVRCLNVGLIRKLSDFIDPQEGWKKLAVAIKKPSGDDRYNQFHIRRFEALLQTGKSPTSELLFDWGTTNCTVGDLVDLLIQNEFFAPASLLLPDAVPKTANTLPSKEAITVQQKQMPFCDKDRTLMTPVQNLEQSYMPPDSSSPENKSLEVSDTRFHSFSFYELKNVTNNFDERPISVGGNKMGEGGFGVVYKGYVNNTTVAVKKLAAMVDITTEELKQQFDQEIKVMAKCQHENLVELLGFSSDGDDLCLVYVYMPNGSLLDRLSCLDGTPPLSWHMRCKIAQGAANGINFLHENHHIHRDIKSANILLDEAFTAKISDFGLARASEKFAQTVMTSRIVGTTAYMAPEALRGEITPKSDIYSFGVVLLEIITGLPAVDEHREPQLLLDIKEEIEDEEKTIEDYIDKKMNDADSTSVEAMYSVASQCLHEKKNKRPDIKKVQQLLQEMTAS
Put plainly: Western blot degradation of IRAK4 (hPBMC). In kind it is cell-based. The note with it: Table D1. The essentials:
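Quantification by ImageJ densitometry of Western blot bands: DC50 is the fitted concentration halving band intensity relative to DMSO. Percent remaining uses internal-control normalization, and degradation rate is its complement.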
(In general: A western blot detects proteins with antibodies after separation by electrophoresis.)

Assay [1] has as its target T2, human Cereblon WT GST-tagged protein (Homo sapiens, UniProt Q96SW2).
T2 construct: purchased CISBIO 64BDCRBNPEH
Put plainly: CRBN binding, HTRF (CEREBLON BINDING kit). Particulars: Table II-1, CRBN binding, HTRF. The essentials:
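Competitive HTRF: GST-tagged human WT Cereblon mixed with compound, Thalidomide-Re tracer and GST Eu antibody, incubated 3 h at room temperature. Signals read at 620 and 665 nm.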
Background: Time-resolved FRET reads energy transfer from a long-lived donor to a nearby acceptor.

A further assay concerns MV-4-11. Put plainly: CCK-8 proliferation, MV-4-11. Type of assay: cell-based, Human. The note with it: Homo sapiens, MV4-11; Table B10, compounds designed based on the IRAK4 inhibitors; MV-4-11 cells; read-out: Inhibitory activity (IC50, nM) on tumor cell proliferation, MV-4-11. The essentials: as §1

Data on nine compounds can be found in patent EP4678638A1, “NEW E3 UBIQUITIN LIGASE LIGAND, PROTEIN DEGRADATION AGENT AND USE THEREOF” (priority 2023, dated 2024).

pIC50: −log10 of the molar value. Read-outs that look alike come from different tables or passages of the source.

T2 sequence (Q96SW2 whole entry): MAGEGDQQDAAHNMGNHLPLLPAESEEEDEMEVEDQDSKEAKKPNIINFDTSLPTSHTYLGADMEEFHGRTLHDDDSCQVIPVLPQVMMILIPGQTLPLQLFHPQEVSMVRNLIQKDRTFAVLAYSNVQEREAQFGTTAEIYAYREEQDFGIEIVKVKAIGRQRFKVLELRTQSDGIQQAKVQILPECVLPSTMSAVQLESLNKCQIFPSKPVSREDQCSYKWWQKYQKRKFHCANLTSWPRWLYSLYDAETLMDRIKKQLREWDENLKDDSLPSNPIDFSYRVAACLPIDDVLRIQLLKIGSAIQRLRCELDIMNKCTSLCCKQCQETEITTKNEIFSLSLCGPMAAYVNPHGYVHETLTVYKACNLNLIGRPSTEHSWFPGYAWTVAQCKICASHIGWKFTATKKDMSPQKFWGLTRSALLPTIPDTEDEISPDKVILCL

Consider `O=C1CCC(c2ccc(CN3CCN(c4ccc(-n5cc(NC(=O)c6coc(-c7ccnc(NCC(F)(F)F)c7)n6)c(C(F)F)n5)cc4)CC3)cc2)C(=O)N1` (stereo not shown) [GT-04273, N-(3-(difluoromethyl)-1-(4-(4-(4-(2,6-dioxopiperidin-3-yl)benzyl)piperazin-1-yl)phenyl)-1H-pyrazol-4-yl)-2-(2-((2,2,2-trifluoroethyl)amino)pyridin-4-yl)oxazole-4-carboxamide], for which the IC50 in the assay with MM.1S lay within 1 to 10 nM; in the assay on LNcap, 100 to 500 nM; with Jurkat, 1 to 10 nM; in the assay on MGC-803 it was 10 to 50 nM; with H1299, 50 to 100 nM; with SR, 50 to 100 nM.
For the compound `Cc1ccc(-c2c(C)noc2C)cc1N(CC1CCN(Cc2ccc(C3CCC(=O)NC3=O)cc2)CC1)c1ccc(C2(C#N)CC2)cc1` (stereo not shown) [GT-04839, 1-(4-((5-(3,5-dimethylisoxazol-4-yl)-2-methylphenyl)((1-(4-(2,6-dioxopiperidin-3-yl)benzyl)piperidin-4-yl)methyl)amino)phenyl)cyclopropane-1-carbonitrile], the pIC50 was 7.00 to 7.30 in the assay with BXPC-3; 6.00 to 6.30 in the assay with MGC-803; 6.00 to 6.30 in the assay with SW620; 6.00 to 6.30 with CCRF-CEM (CCRF-CEM, CCK-8, 96 hours, read-out: Inhibitory activity (IC50) on tumor cell proliferation, CCRF-CEM).
With `Cc1ccc(-c2c(C)noc2C)cc1N(CC1CCN(Cc2ccc(C3CCC(=O)NC3=O)c(F)c2)CC1)c1ccc(C2(C#N)CC2)cc1` (stereo not shown) [GT-04840, 1-(4-((5-(3,5-dimethylisoxazol-4-yl)-2-methylphenyl)((1-(4-(2,6-dioxopiperidin-3-yl)-3-fluorobenzyl)piperidin-4-yl)methyl)amino)phenyl)cyclopropane-1-carbonitrile], the figures for the pIC50 with BXPC-3, in the assay with MGC-803 and in the assay on SW620 were 7.30 to 8.00, 6.30 to 7.00 and 6.30 to 7.00, respectively.
Regarding `O=C1CCC(Nc2cccc(CN3CCN(c4ccc(-n5cc(NC(=O)c6coc(-c7ccnc(NCC8CC8)c7)n6)c(C(F)F)n5)cc4)CC3)c2)C(=O)N1` (stereo not shown) [GT-04969, 2-(2-((cyclopropylmethyl)amino)pyridin-4-yl)-N-(3-(difluoromethyl)-1-(4-(4-(3-((2,6-dioxopiperidin-3-yl)amino)benzyl)piperazin-1-yl)phenyl)-1H-pyrazol-4-yl)oxazole-4-carboxamide], the IC50 with MM.1S, in the assay on Jurkat, in the assay with MGC-803, with H1299 and with SR was 100 to 500 nM throughout. In addition, the “Degradation of substrate protein IRAK4 (substrate protein remaining %)” value (from here on “Degradation … (substrate protein remaining %)”) at IRAK4 was “A (A is defined as 0% ≤ substrate protein remaining % ≤ 80%)”.
`O=C1CCN(c2ccc(CN3CCN(c4ccc(-n5cc(NC(=O)c6coc(-c7ccnc(NCC8CC8)c7)n6)c(C(F)F)n5)cc4)CC3)cn2)C(=O)N1` [GT-04970, 2-(2-((cyclopropylmethyl)amino)pyridin-4-yl)-N-(3-(difluoromethyl)-1-(4-(4-((6-(2,4-dioxotetrahydropyrimidin-1(2H)-yl)pyridin-3-yl)methyl)piperazin-1-yl)phenyl)-1H-pyrazol-4-yl)oxazole-4-carboxamide]: the IC50 was 50 to 100 nM in the assay on MM.1S; 100 to 500 nM in the assay with Jurkat; 50 to 100 nM in the assay with MGC-803; 100 to 500 nM in the assay on H1299; 50 to 100 nM with SR. The “Degradation … (substrate protein remaining %)” value on IRAK4 is on record as “A (A is defined as 0% ≤ substrate protein remaining % ≤ 80%)”.
Turning to `O=C1CCC(c2ccc(CN3CCN(c4ccc5c(c4)nc(NC(=O)c4cccc(C(F)(F)F)c4)n5C4CCC(CO)CC4)CC3)cc2)C(=O)N1` (stereo not shown) [GT-04981, N-(5-(4-(4-(2,6-dioxopiperidin-3-yl)benzyl)piperazin-1-yl)-1-((1s,4s)-4-(hydroxymethyl)cyclohexyl) -1H-benzo[d]imidazol-2-yl)-3-(trifluoromethyl)benzamide], the IC50 is 100 to 500 nM in the assay with MM.1S; 500 to 1000 nM in the assay on Jurkat; 500 to 1000 nM with MGC-803; 500 to 1000 nM with H1299; 100 to 500 nM in the assay with SR. Also, the “Degradation … (substrate protein remaining %)” value at IRAK4 is listed as “A (A is defined as 0% ≤ substrate protein remaining % ≤ 80%)”.
With `O=C1CCN(c2ccc(CN3CCN(c4ccc5c(c4)nc(NC(=O)c4cccc(C(F)(F)F)c4)n5[C@H]4CC[C@@H](CO)CC4)CC3)cc2)C(=O)N1` [GT-04982, N-(5-(4-(4-(2,4-dioxotetrahydropyrimidin-1(2H)-yl)benzyl)piperazin-1-yl)-1-((1s,4s)-4-(hydroxymethyl)cyclohexyl) -1H-benzo[d]imidazol-2-yl)-3-(trifluoromethyl)benzamide], the IC50 in the assay with MM.1S is 50 to 100 nM; in the assay on Jurkat, 100 to 500 nM; in the assay on MGC-803, 100 to 500 nM; in the assay on H1299, 100 to 500 nM; with SR it was 100 to 500 nM. In addition, the “Degradation … (substrate protein remaining %)” value on IRAK4 is on record as “A (A is defined as 0% ≤ substrate protein remaining % ≤ 80%)”.
`O=C1CCN(c2ccc(CN3CCN(c4ccc5c(c4)nc(NC(=O)c4cccc(C(F)(F)F)c4)n5[C@H]4CC[C@@H](CO)CC4)CC3)nc2)C(=O)N1` [GT-04986, N-(5-(4-((5-(2,4-dioxotetrahydropyrimidin-1(2H)-yl)pyridin-2-yl)methyl)piperazin-1-yl)-1-((1s,4s)-4-(hydroxymethyl)cyclohexyl) -1H-benzo[d]imidazol-2-yl)-3-(trifluoromethyl)benzamide]: the IC50 in the assay with MM.1S, with Jurkat, in the assay with MGC-803, in the assay on H1299 and in the assay with SR was 100 to 500 nM each time. The “Degradation … (substrate protein remaining %)” value at IRAK4 is “A (A is defined as 0% ≤ substrate protein remaining % ≤ 80%)”.
On to `CC[C@@H]1[C@H](F)C(=O)N[C@@H]1COc1nccc2cc(C(N)=O)c(OC)cc12` [PF06650833, reference compound], for which the IC50 in the assay with MM.1S is greater than 10000 nM; with MV-4-11, 1000 to 5000 nM; with LNcap it was greater than 10000 nM; in the assay on Jurkat, greater than 10000 nM; in the assay with MGC-803 it was 5000 to 10000 nM; in the assay with H1299, 5000 to 10000 nM. Further, the IC50 fell in the range of 5000 to 10000 nM with CCRF-CEM (Table B10, compounds designed based on the IRAK4 inhibitors, CCRF-CEM cells, read-out: Inhibitory activity (IC50, nM) on tumor cell proliferation, CCRF-CEM) and 1000 to 5000 nM in the assay with SR. The compound further had a pIC50 in assay [1] of less than 5.00.
